According to patent US6630510B1, “Substituted succinic acid metallo-β-lactamase inhibitors and their use in treating bacterial infections” (priority 1999, dated 2003):

Columns and labels:
[1] = test system: E. coli BL21(DE3)/pET30a-IMP-1; assay: Carbapenem sensitivity (MIC) of E. coli expressing IMP-1; assay type: cell-based; conditions: for fold reduced sensitivity resulting from basal (uninduced) IMP-1 expression: pET30a-IMP-1 introduced into E. coli BL21(DE3)
From the text: A laboratory strain of E.coli engineered to express IMP-1 was used to evaluate the ability of succinate derivatives to reverse metallo-β-lactamase-mediated carbapenem resistance in bacteria. Native IMP-1, which included the N-terminal periplasmic signal sequence, was PCR amplified from […] isolated from a carbapenem resistant P. aeruginosa clinical isolate, CL56673, and cloned into the pET30a vector. […] To evaluate IMP-1 inhibitors, an overnight culture of E. coli BL2(DE3)/pET30a-IMP-1, grown 35° C. in LB broth (Difco) or Mueller Hinton broth (BBL) supplemented with kanamycin ([…]), was diluted to a final concentration of ˜10^5 cells/ml in Mueller Hinton broth (BBL) containing a subinhibitory concentration (0.25×MIC) of the carbapenem, (1S,5R,6S)-1-methyl-2-{7-[4-(aminocarbonylmethyl)-1,4-diazoniabicyclo(2.2.2)octan-1-yl]methyl-fluoren-9-on-3-yl}-6-(1R-hydroxyethyl)carbapen-2-em-3-carboxylate chloride. Various concentrations of IMP-1 inhibitor were added to the bacterial growth medium and their capacity to effect a four-fold or greater increase in sensitivity to the carbapenem was monitored.

E. coli BL21(DE3) = assay: Carbapenem MIC in E. coli without IMP-1 expression; assay type: cell-based; conditions: without expression of IMP-1

Molecule | fold reduced sensitivity resulting from basal (uninduced) IMP-1 expression [1] [fold] | minimum inhibitory concentration (MIC) ([1]; with expression of IMP-1) [µg/mL] | minimum inhibitory concentration (MIC) (E. coli BL21(DE3)) [µg/mL]
C[C@@H](O)[C@H]1C(=O)N2C(C(=O)O)=C(SCCN=CN)C[C@H]12 [impenem, imipenem, reference compound] | 4 |  | 
C[C@@H](O)[C@H]1C(=O)N2C(C(=O)O)=C(S[C@@H]3CN[C@H](C(=O)N(C)C)C3)[C@H](C)[C@H]12 [meropenem, reference compound] | 64 |  | 
(1S,5R,6S)-1-methyl-2-{7-[4-(aminocarbonylmethyl)-1,4-diazoniabicyclo(2.2.2)octan-1-yl]methyl-fluoren-9-on-3-yl}-6-(1R-hydroxyethyl)-carbapen-2-em-3-carboxylate chloride | 500 | 16 to 32 | 0.06 to 0.12
